Assay [1] in a line: Inhibition of human Leukocyte Antigen Related(LAR) protein tyrosine phosphatase D1.
Assay [2] deals with T1, Tyrosine-protein phosphatase 1 (Saccharomyces cerevisiae S288c, UniProt P25044).
T1 sequence (P25044 whole entry): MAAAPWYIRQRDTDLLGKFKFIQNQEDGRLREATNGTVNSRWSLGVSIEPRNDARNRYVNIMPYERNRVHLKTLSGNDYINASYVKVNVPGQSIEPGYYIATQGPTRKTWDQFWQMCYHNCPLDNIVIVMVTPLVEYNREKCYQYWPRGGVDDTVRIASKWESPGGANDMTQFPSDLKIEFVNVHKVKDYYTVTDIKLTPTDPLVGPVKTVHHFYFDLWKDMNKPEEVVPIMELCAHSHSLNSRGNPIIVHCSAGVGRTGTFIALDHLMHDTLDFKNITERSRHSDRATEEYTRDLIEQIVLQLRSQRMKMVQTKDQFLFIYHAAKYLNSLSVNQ
The assay can be described thus: Inhibitory activity against Saccharomyces cerevisiae Tyrosine phosphatase 1.

The target in assay [3] is T2, Tyrosine-protein phosphatase non-receptor type 1 (Homo sapiens, UniProt P18031).
T2 sequence (P18031 whole entry): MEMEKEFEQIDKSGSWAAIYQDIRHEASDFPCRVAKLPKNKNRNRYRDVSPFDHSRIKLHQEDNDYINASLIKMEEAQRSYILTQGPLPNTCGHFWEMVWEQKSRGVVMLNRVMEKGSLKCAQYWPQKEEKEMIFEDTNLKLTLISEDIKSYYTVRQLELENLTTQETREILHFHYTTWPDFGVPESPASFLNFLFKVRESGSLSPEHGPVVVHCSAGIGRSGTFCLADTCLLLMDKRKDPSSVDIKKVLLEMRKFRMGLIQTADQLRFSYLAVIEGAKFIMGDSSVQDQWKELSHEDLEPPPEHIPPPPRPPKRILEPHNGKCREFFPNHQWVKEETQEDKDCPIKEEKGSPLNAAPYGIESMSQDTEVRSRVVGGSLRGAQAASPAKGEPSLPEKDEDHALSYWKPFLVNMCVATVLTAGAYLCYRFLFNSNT
Nature of the assay: Inhibition of human PTPase 1B.

Structures are written as SMILES.

Usually IC50 stands for the point on the concentration scale where inhibition reaches its midpoint. Lower therefore signals greater potency. For `Cc1[nH]n(-c2ccccc2)c(=O)c1N=Nc1c(O)cc(S(=O)(=O)O)c2ccccc12`, the IC50 in assay [1] turned out to be 660 µM; in assay [2] it was 140 µM; in assay [3], 150 µM.
As for `CC(C)=CC[C@@H](O)C1=CC(=O)c2c(O)ccc(O)c2C1=O` [SHIKONIN], the figures for the IC50 in assay [1] and in assay [3] were > 1000 µM and 25 µM, respectively.
As to `O=C1OC2(c3ccc(O)cc3Oc3cc(O)ccc32)c2ccccc21` [FLUORESCEIN], the IC50 in assay [1] was > 1000 µM; in assay [2] it was 850 µM; in assay [3], 600 µM.
As to `O=C(O)c1cc(N=Nc2ccc([N+](=O)[O-])cc2)ccc1O`, the half-maximal inhibitory concentration (IC50) in assay [1] is > 1000 µM; in assay [2], 630 µM; in assay [3], 210 µM.
Take `COc1cc(S(=O)(=O)O)c(C)cc1N=Nc1c(O)ccc2cc(S(=O)(=O)O)ccc12` [E129]: the IC50 in assay [1] came out at 90 µM; in assay [2], 410 µM; in assay [3], 33 µM.
Taken in the same sequence, the figures for `O=C1c2ccccc2C(=O)c2c1cc(S(=O)(=O)O)c(O)c2O` [Alizarin Red S] were 82 µM, 48 µM and 40 µM.
In the case of `Cc1c(C(=O)O)c(O)cc2c1C(=O)c1c(O)c([C@H]3O[C@H](CO)[C@@H](O)[C@H](O)[C@H]3O)c(O)c(O)c1C2=O` [CARMINE], the IC50 in assay [1] was > 1000 µM; in assay [2], 15 µM; in assay [3], 26 µM.
Taken in the same sequence, the figures for `O=C(O)c1cc2ccccc2c(Cc2c(O)c(C(=O)O)cc3ccccc23)c1O` [PAMOIC ACID] were > 1000 µM, > 1000 µM and 310 µM.
Taken in the same sequence, the figures for `Cc1cc(-c2ccc(/N=N/c3ccc4c(S(=O)(=O)O)cc(S(=O)(=O)O)c(N)c4c3O)c(C)c2)ccc1/N=N/c1ccc2c(S(=O)(=O)O)cc(S(=O)(=O)O)c(N)c2c1O` [EVANS BLUE] were 61 µM, 1.2 µM and 1.3 µM.
Regarding `Cc1cc(-c2ccc(/N=N/c3c(S(=O)(=O)O)cc4cc(S(=O)(=O)O)cc(N)c4c3O)c(C)c2)ccc1/N=N/c1c(S(=O)(=O)O)cc2cc(S(=O)(=O)O)cc(N)c2c1O` [TRYPAN BLUE], the figures for the IC50 in assay [1], in assay [2] and in assay [3] were 170 µM, 7.4 µM and 3.9 µM, respectively.
For the compound `O=S(=O)(O)c1cc(O)c2c(O)cc(S(=O)(=O)O)cc2c1` [CHROMOTROPATE], the half-maximal inhibitory concentration (IC50) stood at 570 µM in assay [1], 6.5 µM in assay [2] and 9.7 µM in assay [3].
Consider `C/C(=C1/C=CC(=O)C(C(=O)O)=C1)c1ccc(O)c(C(=O)O)c1`, for which the IC50 was > 1000 µM in assay [1], 30 µM in assay [2] and 5.2 µM in assay [3].
Regarding `O=S(=O)(O)c1cc(S(=O)(=O)O)c2c(N=Nc3c(O)cc(S(=O)(=O)O)c4ccccc34)c(O)c(S(=O)(=O)O)cc2c1` [E126], the 50% inhibitory concentration (IC50) came to 110 µM in assay [2] and 460 µM in assay [3].

Source of the values: ChEMBL document CHEMBL1138696, “Evans Blue and other dyes as protein tyrosine phosphatase inhibitors” (Bioorg Med Chem Lett, 2004).
